# Laboratory results from US20080085889A1, “Amidomethyl-Substituted 1-(Carboxyalkyl) Cyclopentyl-Carbonylamino-Benzazepine-N-Acetic Acid Compounds, Process and Intermediate Products for Their Preparation and Pharmaceutical Compositions Containing Them” (SOLVAY PHARMACEUTICALS GmbH, priority 2003, published 2008).
# What was measured:
# [1] = target: T1, soluble, human recombinant NEP (Homo sapiens, UniProt P08473); test: In-vitro investigation of the NEP inhibitory action (fluorescence-quenched Big-ET-1 analogue, HPLC); assay type: biochemical
# T1 construct: soluble, human recombinant NEP; purchased Prof; Crine, University of Montreal, Canada
# Procedure: 1. In-Vitro Investigation of the NEP Inhibitory Action of the Substances
# In this test, the measure of the inhibitory activity of the substances which was determined was their IC50 value. The IC50 value of a test substance having enzyme-inhibitory activity is that concentration of the test substance at which 50% of the enzymatic activity of the NEP is blocked.
# 70 μl test buffer, 10 μl enzyme working solution and 10 μl test substance solution were mixed in an Eppendorf vessel and preincubated at 37° C. for 15 minutes (=min.). Then 10 μl substrate stock solution was added and the test batch was incubated for 60 minutes at 37° C. The enzymatic reaction was then ended by 5-minutes' heating to 95° C. After centrifugation (Heraeus Biofuge B, 3 min.), the liquid supernatant was investigated by HPLC in accordance with the following specifications.
# The substrate was separated from cleavage products by means of reversed-phase HPLC (CC 125/4 Nucleosil 300/5 C18 RP column with CC 8/4 Nucleosil 100/5 C18 precolumn, from Macherey-Nagel, Düren, Germany). For this, 60 μl of the test mixture was injected into the HPLC sample injection point and the column was then eluted at a flow rate of 1 ml/min with the following gradient:
# Mobile Phase B: 100% acetonitrile+0.5M H3PO4
# All the peptides were detected by absorption at 214 nm and by fluorescence with an excitation wavelength of 328 nm and an emission wavelength of 393 nm.
# Upon enzymatic cleavage of the peptide, the fluorophore (=Mca) and the quencher end up in different peptide fragments, which reduces the effectiveness of the quench. […] The increasing fluorescence signal (corresponds to the area, A) of the HPLC peak of the peptide with the non-quenched Mca fluorophore is used for the further calculations. This signal was compared for samples with (=Ainhib) and without (=Acontrol) test substance of Formula I, and the value “% inhibition” was calculated on the basis of the respective peak areas according to the following formula: % inhibition=100*(1−Ainhib/Acontrol)
# All the samples were measured in duplicates and average values were calculated therefrom. A standard inhibitor (10 nM thiorphan) and a solvent control (0.1% DMSO) were likewise measured as quality controls on each run. In this test model the test substances of Formula I listed in the following Table 1 had the IC50 values given below: […]
# [2] = target: T2, His6-tagged hSEP ectodomain (Homo sapiens, UniProt Q495T6); test: In vitro investigation of the hSEP-inhibitory action (fluorescence-quenched Big-ET-1 analogue, HPLC); assay type: biochemical
# T2 construct: His6-tagged hSEP ectodomain; His6; purchased Innogenetics, Ghent, Belgium
# T2 sequence (Q495T6 49-779 limits assumed): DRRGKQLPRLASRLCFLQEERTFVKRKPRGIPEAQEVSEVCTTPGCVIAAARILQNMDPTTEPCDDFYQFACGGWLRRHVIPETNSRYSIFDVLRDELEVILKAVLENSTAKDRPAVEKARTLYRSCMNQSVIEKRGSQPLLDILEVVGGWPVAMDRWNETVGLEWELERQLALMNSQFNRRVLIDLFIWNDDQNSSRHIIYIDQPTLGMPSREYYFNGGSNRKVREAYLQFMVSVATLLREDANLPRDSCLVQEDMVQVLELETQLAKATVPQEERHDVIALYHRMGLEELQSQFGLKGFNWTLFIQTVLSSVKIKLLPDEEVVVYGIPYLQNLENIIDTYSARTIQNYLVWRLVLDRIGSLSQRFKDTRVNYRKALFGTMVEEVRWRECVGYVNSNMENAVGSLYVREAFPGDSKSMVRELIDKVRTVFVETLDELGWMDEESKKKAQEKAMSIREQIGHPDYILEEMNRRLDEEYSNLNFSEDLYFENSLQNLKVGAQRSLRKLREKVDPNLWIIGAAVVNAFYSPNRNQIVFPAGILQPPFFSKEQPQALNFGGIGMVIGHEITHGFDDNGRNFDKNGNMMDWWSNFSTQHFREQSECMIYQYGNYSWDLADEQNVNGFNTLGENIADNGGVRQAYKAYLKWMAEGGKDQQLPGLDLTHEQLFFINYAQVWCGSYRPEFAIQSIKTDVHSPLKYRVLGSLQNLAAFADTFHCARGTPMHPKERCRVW
# Procedure: 2. In Vitro Investigation of the hSEP-Inhibitory Action of the Substances
# In this test, the measure of the inhibitory activity of the substances which was determined was their IC50 value. The IC50 value of a test substance having enzyme-inhibitory activity is that concentration of the test substance at which 50% of the enzymatic activity of the hSEP is blocked.
# The test and the HPLC procedure were carried out analogously to the manner set forth above for determining the in vitro inhibitory action of the test substances on NEP. 10 nM phosphoramidon served as standard inhibitor in the HPLC procedure. In this test model the test substances of Formula I listed in the following Table 2 had the IC50 values given below: […]
# [3] = test system: formation of ET-1 from Big-ET-1; test: In vivo inhibition of the Big-ET-1-induced blood pressure increase in anaesthetised rats, i.v. single dose; set-up: species or system Rats (Sprague-Dawley); conditions: Rattus norvegicus, iv, 10 μmol/kg, 5 min before 0.5 nmol/kg Big-ET-1, negative values indicate inhibition, read-out: % substance-related inhibition of the maximum Big-ET effect on SAP vs. control
# Description: 3. In Vivo Investigation of the Inhibitory Action of the Substances on the Formation of ET-1 from Big-ET-1 in Rats
# ET-1 is an endogenous substance with strong vasoconstrictive effect. An increase in the ET-1 level results in an increase in blood pressure. Upon infusion of Big-ET-1, an increase in blood pressure takes place to the extent that ET-1 is produced therefrom by enzyme-catalysed cleavage of Big-ET-1. As a measurement of the enzyme-inhibiting action of the substances, their inhibitory action on the increase in blood pressure induced by infusion of Big-ET-1 was determined.
# Rats (Sprague-Dawley, CRLD=Charles River) were anaesthetised with 1 ml/kg Rompun/Ketavet 1:1. A pressure transducer (Statham) was inserted into the carotid artery to measure blood pressure. One jugular vein was cannulated for administering the substance, and the other for administering Big-ET-1. After a 20-minute equilibration phase, the rats were administered the corresponding test substance of Formula I at a dose of as a rule 10 μmol/kg (if not stated otherwise), or a vehicle. Five minutes later, 0.5 nmol/kg Big-ET-1 was infused over a period of one minute. The systolic (SAP=systolic arterial pressure) and the diastolic (DAP=diastolic arterial pressure) blood pressure and the heart rate were each measured before administration of the substance, then immediately before administration of Big-ET and in each case every five minutes over a period of 30 minutes after Big-ET administration using the pressure transducer in known manner. The maximum Big-ET-induced increase in blood pressure and the maximum lowering of heart rate were calculated from the measured values as the difference between the value measured at the moment of maximum development of the Big-ET action (typically after 5 min.) and the value measured before Big-ET infusion. Furthermore, the integral of the blood pressure curve under the influence of Big-ET-1 was determined over 30 minutes (AUC=area under the curve).
# The percentage inhibition of the maximum Big-ET-1 effect on the systolic arterial blood pressure (SAP) after i.v. administration of the test substances compared with administration of a vehicle is set forth in the following Table 3a:
# Data given in table 3a as negative values indicate an inhibitory effect.
# [4] = test system: TUNEL positive cells in heart, liver and kidney; test: Adriamycin toxicity: determination of anti-apoptotic activity (TUNEL staining); assay type: in vivo, Wistar rats; conditions: adriamycin alone, 3 x 5 mg/kg i.p. (cumulative 15 mg/kg), vehicle minipump; day 5; ± SEM
# Procedure: 2. Adriamycin Toxicity: Determination of Anti-Apoptotic Activity
# Wistar rats, weighing 200-250 g, were anesthetized with chloral hydrate, 400 mg/kg, and Alzet osmotic minipumps (2 ML1), were implanted subcutaneously (=s.c.). The pumps had been filled with either vehicle or solution containing compounds of the invention at the appropriate concentration and primed prior to implantation. Animals subsequently received adriamycin at three equal daily doses of 5 mg/kg i.p. on days 1, 2 and 3. Rats were euthanized 5 days after the first injection of adriamycin and transcardially perfused with a solution containing 4% paraformaldehyde in phosphate buffer. The heart, liver and kidneys were subsequently removed and embedded in parafin.
# TUNEL staining: For terminal deoxynucleotide transferase-mediated dUTP nick end-label (TUNEL) based histological analysis, organs were post-fixed for 5 days at 4° C. and paraffin-embedded. TUNEL staining was performed on 10 μm thick paraffin sections using the ApopTag Peroxidase kit (S 7100, Oncor Appligene, Heidelberg, Germany) according to the manufacturer's instructions. Briefly, after pretreatment with proteinase K and quenching of endogenous peroxidase, sections were incubated in equilibration buffer followed by working strength TdT enzyme (incorporating digoxigenin labeled dUTP nucleotides to free 3′-OH DNA termini), (1 hr, 37° C.). Sections were incubated in stop/wash buffer (30 min, 37° C.), then with anti-digoxigenin-peroxidase conjugate (30 min) followed by DAB substrate (Sigma, Deisenhofen, Germany) and lightly counterstained with methylgreen.
# Wistar rats were administered adriamycin at the cumulative dose of 15 mg/kg i.p. The test substance of Example 4 was administered s.c. at the doses of 20, 50 or 100 mg/kg and day by means of Alzet osmotic minipumps over 5 days. Animals were euthanized and transcardially perfused 5 days after the first injection of adriamycin and the heart, kidney and liver were processed for TUNEL staining. Densities of TUNEL positive cells were determined as described in the methods. Results for each organ (heart, liver, kidney) were measured as mean densities of TUNEL positive cells ±SEM for the control groups and the different test groups (20, 50 or 100 mg/kg and day of test compound of Example 4) and listed in table 8 below.
# Comparisons between groups were performed by means of Student's t test (**P<0.01; ***P<0.001 compared to vehicle treated rats).
# T1 sequence (P08473 52-750 limits assumed): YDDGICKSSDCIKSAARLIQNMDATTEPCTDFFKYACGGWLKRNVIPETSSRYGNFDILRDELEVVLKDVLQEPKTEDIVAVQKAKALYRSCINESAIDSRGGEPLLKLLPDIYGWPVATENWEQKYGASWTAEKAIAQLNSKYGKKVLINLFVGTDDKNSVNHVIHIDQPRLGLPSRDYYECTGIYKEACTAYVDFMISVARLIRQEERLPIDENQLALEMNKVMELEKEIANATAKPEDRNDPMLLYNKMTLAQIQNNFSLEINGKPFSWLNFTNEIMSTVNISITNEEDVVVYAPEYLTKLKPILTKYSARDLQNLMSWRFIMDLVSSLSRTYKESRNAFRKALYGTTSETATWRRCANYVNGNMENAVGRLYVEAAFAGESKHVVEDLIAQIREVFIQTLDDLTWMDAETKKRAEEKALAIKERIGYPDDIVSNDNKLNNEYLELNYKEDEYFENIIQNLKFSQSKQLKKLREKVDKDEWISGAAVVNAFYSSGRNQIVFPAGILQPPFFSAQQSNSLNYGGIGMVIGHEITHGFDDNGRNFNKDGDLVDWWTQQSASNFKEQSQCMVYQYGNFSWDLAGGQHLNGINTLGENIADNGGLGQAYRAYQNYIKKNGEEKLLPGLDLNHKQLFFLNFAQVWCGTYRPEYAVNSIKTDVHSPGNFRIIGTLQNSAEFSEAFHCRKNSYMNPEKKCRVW
Structure (SMILES),IC50 [1],IC50 [2],change in vivo at 10 µmol/kg [3],"TUNEL positive cells, Heart [4]","TUNEL positive cells, Kidney [4]","TUNEL positive cells, Liver [4]"
O=C(O)CN1C(=O)[C@@H](NC(=O)C2(CC(CC(=O)NC3CCCCNC3=O)C(=O)O)CCCC2)CCc2ccccc21 (mixture of isomers) [Example 17],< 1 nM,24 nM,-46%,–,–,–
COc1ccc(C(=O)CNC(=O)CC(CC2(C(=O)N[C@H]3CCc4ccccc4N(CC(=O)O)C3=O)CCCC2)C(=O)O)cc1 (mixture of isomers) [Example 20],12.9 nM,36.3 nM,-67%,–,–,–
O=C(O)CN1C(=O)[C@@H](NC(=O)C2(CC(CC(=O)NCC3CC3)C(=O)O)CCCC2)CCc2ccccc21 (mixture of isomers) [Example 23],10.6 nM,17.3 nM,-40%,–,–,–
"CCN(CCCCN)C(=O)CC(CC1(C(=O)NC2CCc3ccccc3N(CC(=O)O)C2=O)CCCC1)C(=O)O (racemic) [Example 76, 4-[(4-aminobutyl)(ethyl)amino]-2-{[1-({[1-(carboxymethyl)-2-oxo-2,3,4,5-tetrahydro-1H-1-benzazepin-3-yl]amino}carbonyl)cyclopentyl]methyl}-4-oxobutanoic acid]",10 nM,4 nM,-93%,–,–,–
COCCNC(=O)CC(CC1(C(=O)N[C@H]2CCc3ccccc3N(CC(=O)O)C2=O)CCCC1)C(=O)O (mixture of isomers) [Example 16],20 nM,15 nM,-45%,–,–,–
"COc1cccc2c1C(=O)c1c(O)c3c(c(O)c1C2=O)C[C@@](O)(C(=O)CO)C[C@@H]3O[C@H]1C[C@H](N)[C@H](O)[C@H](C)O1 [Adriamycin, adriamycin, reference compound]",–,–,–,5.417 ± 0.146 cells/mm3 × 102,9.438 ± 0.198 cells/mm3 × 102,10.420 ± 0.275 cells/mm3 × 102
"CN(C)CCN(C)C(=O)CC(CC1(C(=O)NC2CCc3ccccc3N(CC(=O)O)C2=O)CCCC1)C(=O)O (stereo not drawn) [Example 59, 2-{[1-({[1-(carboxymethyl)-2-oxo-2,3,4,5-tetrahydro-1H-1-benzazepin-3-yl]amino}carbonyl)cyclopentyl]methyl}-4-[[2-(dimethylamino)ethyl](methyl)amino]-4-oxobutanoic acid]",12 nM,4 nM,-98%,–,–,–
COc1ccc(CNC(=O)CC(CC2(C(=O)N[C@H]3CCc4ccccc4N(CC(=O)O)C3=O)CCCC2)C(=O)O)cc1 (mixture of isomers) [Example 24],11.1 nM,27 nM,-54%,–,–,–
